Measurements published in ChEMBL document CHEMBL1681651, “A broad spectrum anticancer nucleoside with selective toxicity against human colon cells in vitro” (2011).

Tests used:
Type in all cases: functional
[1] = test system: SN12C; experiment: Growth inhibition of human SN12C cells assessed as cell growth at 1 uM after 48 hrs by SRB assay; details: read-out: Activity
[2] = test system: MCF7; experiment: Growth inhibition of human MCF7 cells assessed as cell growth at 1 uM after 48 hrs by SRB assay; details: MCF7, 48 h, read-out: Activity
[3] = test system: A549; experiment: Growth inhibition of human A549 cells assessed as cell growth at 10 uM after 48 hrs by SRB assay; details: A549, 48 h, read-out: Activity
[4] = test system: NCI-H460; experiment: Growth inhibition of human NCI-H460 cells assessed as cell growth at 10 uM after 48 hrs by SRB assay; details: NCI-H460, 48 h, read-out: Activity
[5] = test system: SF-268; experiment: Growth inhibition of human SF268 cells assessed as cell growth at 10 uM after 48 hrs by SRB assay; details: SF-268, 48 h, read-out: Activity
[6] = test system: SF-539; experiment: Growth inhibition of human SF539 cells assessed as cell growth at 10 uM after 48 hrs by SRB assay; details: SF-539, 48 h, read-out: Activity
[7] = test system: HOP-62; experiment: Growth inhibition of human HOP62 cells after 48 hrs by […] growth inhibition assay; details: HOP-62, 48 h
[8] = test system: NCI-H460; experiment: Growth inhibition of human NCI-H460 cells after 48 hrs by […] growth inhibition assay; details: NCI-H460, 48 h
[9] = test system: HCT-116; experiment: Growth inhibition of human HCT116 cells after 48 hrs by […] growth inhibition assay; details: HCT-116, 48 h
[10] = test system: OVCAR-3; experiment: Growth inhibition of human OVCAR3 cells after 48 hrs by […] growth inhibition assay; details: OVCAR-3, 48 h
[11] = test system: ACHN; experiment: Growth inhibition of human ACHN cells after 48 hrs by […] growth inhibition assay
[12] = test system: MDA-MB-231; experiment: Growth inhibition of human MDA-MB-231 cells after 48 hrs by […] growth inhibition assay; details: MDA-MB-231, 48 h
[13] = test system: A549; experiment: Growth inhibition of human A549 cells assessed as cell growth at 0.1 uM after 48 hrs by SRB assay; details: A549, 48 h, read-out: Activity
[14] = test system: SF-539; experiment: Growth inhibition of human SF539 cells assessed as cell growth at 0.1 uM after 48 hrs by SRB assay; details: SF-539, 48 h, read-out: Activity
[15] = test system: UACC-62; experiment: Growth inhibition of human UACC62 cells assessed as cell growth at 0.1 uM after 48 hrs by SRB assay; details: UACC-62, 48 h, read-out: Activity
[16] = test system: TK-10; experiment: Growth inhibition of human TK10 cells assessed as cell growth at 0.1 uM after 48 hrs by SRB assay; details: TK-10, 48 h, read-out: Activity
[17] = test system: Malme-3M; experiment: Growth inhibition of human MALME-3M cells assessed as cell growth at 10 uM after 48 hrs by SRB assay; details: read-out: Activity
[18] = test system: UACC-62; experiment: Growth inhibition of human UACC62 cells assessed as cell growth at 10 uM after 48 hrs by SRB assay; details: UACC-62, 48 h, read-out: Activity
[19] = test system: OVCAR-5; experiment: Growth inhibition of human OVCAR5 cells assessed as cell growth at 10 uM after 48 hrs by SRB assay; details: OVCAR-5, 48 h, read-out: Activity
[20] = test system: SN12C; experiment: Growth inhibition of human SN12C cells assessed as cell growth at 10 uM after 48 hrs by SRB assay; details: read-out: Activity
[21] = test system: TK-10; experiment: Growth inhibition of human TK10 cells assessed as cell growth at 10 uM after 48 hrs by SRB assay; details: TK-10, 48 h, read-out: Activity
[22] = Growth inhibition of human Hs 578T cells assessed as cell growth at 10 uM after 48 hrs by SRB assay; details: read-out: Activity
[23] = test system: T47D; experiment: Growth inhibition of human T47D cells assessed as cell growth at 10 uM after 48 hrs by SRB assay; details: read-out: Activity
[24] = Growth inhibition of human […] cells assessed as cell growth at 100 uM after 48 hrs by SRB assay; details: read-out: Activity
[25] = test system: UACC-257; experiment: Growth inhibition of human UACC257 cells assessed as cell growth at 100 uM after 48 hrs by SRB assay; details: UACC-257, 48 h, read-out: Activity
[26] = test system: IGROV-1; experiment: Growth inhibition of human IGROV1 cells assessed as cell growth at 100 uM after 48 hrs by SRB assay; details: IGROV-1, 48 h, read-out: Activity
[27] = test system: HOP-62; experiment: Growth inhibition of human HOP62 cells assessed as cell growth at 1 mM after 48 hrs by SRB assay; details: HOP-62, 48 h, read-out: Activity
[28] = test system: COLO 205; experiment: Growth inhibition of human COLO205 cells assessed as cell growth at 1 mM after 48 hrs by SRB assay; details: COLO 205, 48 h, read-out: Activity
[29] = test system: HCC 2998; experiment: Growth inhibition of human HCC2998 cells assessed as cell growth at 1 mM after 48 hrs by SRB assay; details: HCC 2998, 48 h, read-out: Activity
[30] = test system: IGROV-1; experiment: Growth inhibition of human IGROV1 cells assessed as cell growth at 1 mM after 48 hrs by SRB assay; details: IGROV-1, 48 h, read-out: Activity
[31] = test system: SN12C; experiment: Growth inhibition of human SN12C cells assessed as cell growth at 1 mM after 48 hrs by SRB assay; details: read-out: Activity
[32] = Growth inhibition of human […] cells assessed as cell growth at 1 uM after 48 hrs by SRB assay; details: read-out: Activity
[33] = test system: HOP-92; experiment: Growth inhibition of human HOP92 cells assessed as cell growth at 1 uM after 48 hrs by SRB assay; details: HOP-92, 48 h, read-out: Activity
[34] = test system: HCC 2998; experiment: Growth inhibition of human HCC2998 cells assessed as cell growth at 1 uM after 48 hrs by SRB assay; details: HCC 2998, 48 h, read-out: Activity
[35] = test system: OVCAR-5; experiment: Growth inhibition of human OVCAR5 cells assessed as cell growth at 1 uM after 48 hrs by SRB assay; details: OVCAR-5, 48 h, read-out: Activity
[36] = read-out: LC50 (the source's name)
[37] = read-out: pLC50 (the source's name) (converted)

Q: With `CCOC(=O)C[C@H]1[C@@H](O[Si](C)(C)C(C)(C)C)[C@H](n2cnc3c(NC(=O)Nc4ccccc4)ncnc32)O[C@@H]1CNC(=O)NC` as the compound, how does the growth at 1 µM [1] read?
A: 101%

Q: And the growth at 1 µM [2]?
A: 91%

Q: What about the growth at 10 µM [3] of the same compound?
A: 94%

Q: What about the growth at 10 µM [4] of the same compound?
A: 101%

Q: What about the growth at 10 µM [5] of the same compound?
A: 93%

Q: What about the growth at 10 µM [6] of the same compound?
A: 103%

Q: What about the GI50 ([7]; read-out: GI50) of the same compound?
A: 8.96 µM

Q: And the CC50 [7, 36]?
A: 73.1 µM

Q: And the TGI ([7]; read-out: TGI)?
A: 26.4 µM

Q: What about the GI50 ([7]; read-out: pGI50 (converted)) of the same compound?
A: 8.91 µM

Q: What about the CC50 [7, 37] of the same compound?
A: 72.4 µM

Q: What about the TGI ([7]; read-out: pTGI (converted)) of the same compound?
A: 26.3 µM

Q: What about the GI50 ([8]; read-out: GI50) of the same compound?
A: 5.54 µM

Q: And the CC50 [8, 36]?
A: > 100 µM

Q: And the TGI ([8]; read-out: TGI)?
A: 25 µM

Q: What about the GI50 ([8]; read-out: pGI50 (converted)) of the same compound?
A: 5.5 µM

Q: What about the CC50 [8, 37] of the same compound?
A: > 100 µM

Q: What about the TGI ([8]; read-out: pTGI (converted)) of the same compound?
A: 25.1 µM

Q: And the GI50 ([9]; read-out: GI50)?
A: 3.2 µM

Q: What about the CC50 [9, 36] of the same compound?
A: 45.6 µM

Q: What about the TGI ([9]; read-out: TGI) of the same compound?
A: 16.1 µM

Q: What about the GI50 ([9]; read-out: pGI50 (converted)) of the same compound?
A: 3.24 µM

Q: And the CC50 [9, 37]?
A: 45.7 µM

Q: What about the TGI ([9]; read-out: pTGI (converted)) of the same compound?
A: 16.2 µM

Q: What about the GI50 ([10]; read-out: GI50) of the same compound?
A: 4.59 µM

Q: And the CC50 [10, 36]?
A: 91.3 µM

Q: And the TGI ([10]; read-out: TGI)?
A: 17.2 µM

Q: What about the GI50 ([10]; read-out: pGI50 (converted)) of the same compound?
A: 4.57 µM

Q: What about the CC50 [10, 37] of the same compound?
A: 91.2 µM

Q: What about the TGI ([10]; read-out: pTGI (converted)) of the same compound?
A: 17 µM

Q: What about the GI50 ([11]; read-out: GI50) of the same compound?
A: 8.55 µM

Q: What about the CC50 [11, 36] of the same compound?
A: > 100 µM

Q: What about the TGI ([11]; read-out: TGI) of the same compound?
A: > 100 µM

Q: What about the GI50 ([11]; read-out: pGI50 (converted)) of the same compound?
A: 8.51 µM

Q: And the CC50 [11, 37]?
A: > 100 µM

Q: And the TGI ([11]; read-out: pTGI)?
A: > 100 µM

Q: What about the GI50 ([12]; read-out: GI50) of the same compound?
A: 3.96 µM

Q: And the CC50 [12, 36]?
A: > 100 µM

Q: What about the TGI ([12]; read-out: TGI) of the same compound?
A: 41.3 µM

Q: What about the GI50 ([12]; read-out: pGI50 (converted)) of the same compound?
A: 3.98 µM

Q: What about the CC50 [12, 37] of the same compound?
A: > 100 µM

Q: And the TGI ([12]; read-out: pTGI (converted))?
A: 41.7 µM

Q: And the growth at 0.1 µM [13]?
A: 102%

Q: And the growth at 0.1 µM [14]?
A: 97%

Q: What about the growth at 0.1 µM [15] of the same compound?
A: 100%

Q: And the growth at 0.1 µM [16]?
A: 98%

Q: What about the growth at 10 µM [17] of the same compound?
A: 92%

Q: And the growth at 10 µM [18]?
A: 97%

Q: And the growth at 10 µM [19]?
A: 95%

Q: And the growth at 10 µM [20]?
A: 103%

Q: What about the growth at 10 µM [21] of the same compound?
A: 105%

Q: What about the growth at 10 µM [22] of the same compound?
A: 90%

Q: And the growth at 10 µM [23]?
A: 73%

Q: What about the growth at 100 µM [24] of the same compound?
A: -27%

Q: And the growth at 100 µM [25]?
A: 34%

Q: And the growth at 100 µM [26]?
A: 20%

Q: What about the growth at 1000 µM [27] of the same compound?
A: -65%

Q: And the growth at 1000 µM [28]?
A: 3%

Q: And the growth at 1000 µM [29]?
A: 62%

Q: What about the growth at 1000 µM [30] of the same compound?
A: -58%

Q: What about the growth at 1000 µM [31] of the same compound?
A: 11%

Q: What about the growth at 1 µM [32] of the same compound?
A: 75%

Q: What about the growth at 1 µM [33] of the same compound?
A: -1%

Q: And the growth at 1 µM [34]?
A: 96%

Q: What about the growth at 1 µM [35] of the same compound?
A: 103%
